Reference: patent publication US7351737B2, “4-[(8-substituted)-6-chromanoyl]-and 4-[8-substituted)-chroman-6-YL-ethynyl]-benzoic and phenylacetic acids, their esters and salts having cytochrome P450RAI inhibitory activity” (Allergan, Inc., priority 2002, dated 2008)

Legend:
RARα = biological target: T1, RARα (Homo sapiens, UniProt P10276); test: ligand binding assay, RARα; settings: last item of cell, read-out: RAR α Kd
T1 sequence (P10276 1-462): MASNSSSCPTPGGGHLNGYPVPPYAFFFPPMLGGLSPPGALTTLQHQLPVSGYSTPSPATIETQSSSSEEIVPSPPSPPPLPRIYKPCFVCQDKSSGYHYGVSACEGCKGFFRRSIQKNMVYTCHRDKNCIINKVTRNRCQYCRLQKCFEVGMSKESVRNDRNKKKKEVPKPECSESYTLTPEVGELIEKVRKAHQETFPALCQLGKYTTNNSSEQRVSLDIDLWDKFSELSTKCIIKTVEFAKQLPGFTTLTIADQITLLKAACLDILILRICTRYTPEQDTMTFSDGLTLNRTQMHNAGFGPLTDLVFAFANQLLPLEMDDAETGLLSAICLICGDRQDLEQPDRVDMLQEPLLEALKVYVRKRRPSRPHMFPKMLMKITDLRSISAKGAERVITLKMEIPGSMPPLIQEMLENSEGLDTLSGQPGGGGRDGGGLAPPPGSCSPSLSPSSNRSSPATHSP
Description: (§1) Assays described below measure the ability of a compound to bind to, and/or activate various retinoid receptor subtypes. When in these assays a compound binds to a given receptor subtype and activates the transcription of a reporter gene through that subtype, then the compound is considered an agonist of that receptor subtype. […] In the below described assays the ability of the compounds to bind to RARα, RARβ, RARγ, RXRα, RXRβ and RXRγ receptors, and the ability or inability of the compounds to activate transcription of a reporter gene through these receptor subtypes can be tested.
(§2) A holoreceptor transactivation assay and a ligand binding assay which measure the antagonist/agonist like activity of the compounds of the invention, or their ability to bind to the several retinoid receptor subtypes, respectively, are described in published PCT Application No. WO WO93/11755 (particularly on pages 30-33 and 37-41) published on Jun. 24, 1993, the specification of which is also incorporated herein by reference. A detailed experimental procedure for holoreceptor transactivations has been described by Heyman et al. Cell 68, 397-406, (1992); Allegretto et al. J. Biol. Chem. 268, 26625-26633, and Mangelsdorf et al. The Retinoids: Biology, Chemistry and Medicine, pp 319-349, Raven Press Ltd., New York, which are expressly incorporated herein by reference. The results obtained in this assay are expressed in EC50 numbers, as they are also in the chimeric receptor transactivation assay. The results of ligand binding assay are expressed in Kd numbers. (See Cheng et al. Biochemical Pharmacology Vol. 22 pp 3099-3108, expressly incorporated herein by reference.)
(§3) The results of the ligand binding assay for several preferred compounds of the invention are included in Table 1.

P450RAI-1 = biological target: T2, P450RAI-1 (Homo sapiens, UniProt O43174); test: P450RAI-1 cell-based inhibitor assay ([3H]-RA metabolism, intact cells); settings: P450RAI-1 stably transfected HeLa cells, 3 hours at 37° C., all-trans-RA metabolism; read-out: P450RAI INHIBITION DATA RAI-1 Intact cells IC50
T2 construct: expressed in transfected cells; host or cells: HeLa
T2 sequence (O43174 1-497): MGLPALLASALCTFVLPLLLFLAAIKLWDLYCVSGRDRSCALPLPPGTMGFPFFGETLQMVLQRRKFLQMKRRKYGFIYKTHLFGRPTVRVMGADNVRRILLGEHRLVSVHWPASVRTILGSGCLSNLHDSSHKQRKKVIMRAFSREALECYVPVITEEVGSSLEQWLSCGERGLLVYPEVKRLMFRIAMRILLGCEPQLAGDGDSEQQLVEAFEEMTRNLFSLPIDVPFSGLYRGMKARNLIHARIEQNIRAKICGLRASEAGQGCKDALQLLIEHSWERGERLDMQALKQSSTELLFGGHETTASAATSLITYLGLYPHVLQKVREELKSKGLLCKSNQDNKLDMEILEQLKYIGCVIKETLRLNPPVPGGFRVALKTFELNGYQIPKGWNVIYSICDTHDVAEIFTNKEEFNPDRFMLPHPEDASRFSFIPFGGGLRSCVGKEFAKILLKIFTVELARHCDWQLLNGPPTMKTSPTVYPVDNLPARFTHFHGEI
Description: FIG. 1 is a schematic representation of the P450RAI cell based assay utilized to evaluate the ability of the compounds of the invention to inhibit the Cytochrome P450RAI enzyme.
P450RAI-1 and P450RAI-2 Cell-Based Inhibitor Assay:
P450RAI-1 stably transfected HeLa cells, or P450RAI-2 stably transfected HeLa cells, as applicable, are maintained in […] tissue culture dishes in Modified Eagle's Medium (MEM) containing 10% Fetal Bovine Serum (FBS) and 100 μg/ml hygromycin. Exponentially growing cells are harvested by incubating in trypsin. Cells are then washed with 1X Phosphate Buffered Saline (PBS) and plated in a 48-well plate at 5×10^5 cells in 0.2 ml MEM medium containing 10% FBS and 0.05 μCi [^3H]-RA in the presence or absence of increasing concentrations of the test compounds. The compounds are diluted in 100% DMSO and then added in triplicate wells at either 10, 1 or 0.1 μM final concentration. As a positive control for RA metabolism inhibition, cells are also incubated with ketoconazole at 100, 10 and 1 μM. Cells are incubated for 3 hours at 37° C. The retinoids are then extracted using the procedure of Bligh et al. (1959) Canadian Journal of Biochemistry 37, 911-917, modified by using methylenechloride instead of chloroform. The publication Bligh et al. (1959) Canadian Journal of Biochemistry 37, 911-917 is specifically incorporated herein by reference. The water soluble radioactivity is quantified using a β-scintillation counter. IC50 values represent the concentration of inhibitor required to inhibit all-trans-RA metabolism by 50 percent and are derived manually from log-transformed data.

RARγ = biological target: T3, RARγ (Homo sapiens, UniProt P13631); test: ligand binding assay, RARγ; settings: last item of cell, read-out: RAR γ Kd
T3 sequence (P13631 1-454): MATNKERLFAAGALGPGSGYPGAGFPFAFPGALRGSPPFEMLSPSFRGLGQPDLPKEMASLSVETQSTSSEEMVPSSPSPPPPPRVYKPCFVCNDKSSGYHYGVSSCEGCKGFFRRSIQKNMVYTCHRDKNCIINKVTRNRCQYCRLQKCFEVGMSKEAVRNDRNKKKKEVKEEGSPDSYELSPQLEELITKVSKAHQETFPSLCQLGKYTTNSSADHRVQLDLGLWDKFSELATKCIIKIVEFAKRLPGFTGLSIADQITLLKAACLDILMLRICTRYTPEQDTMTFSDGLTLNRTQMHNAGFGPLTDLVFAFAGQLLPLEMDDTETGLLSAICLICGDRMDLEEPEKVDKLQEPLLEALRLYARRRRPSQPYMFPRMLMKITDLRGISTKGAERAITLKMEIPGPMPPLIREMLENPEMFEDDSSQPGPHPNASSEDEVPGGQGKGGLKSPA
Description: as §1, §2, §3

Row | Kd (RARα) [µM] | IC50 (P450RAI-1) [µM] | Kd (RARγ) [µM] | Compound
1 | > 10 | 0.01 | > 10 | C#Cc1cc(C#Cc2ccc(CC(=O)O)cc2)cc2c1OC(C)(C)CC2(C)C [Compound 40, [4-(8-Ethynyl-2,2,4,4-tetramethyl-chroman-6-ylethynyl)-phenyl]-acetic acid]
2 | > 10 | 0.5 | > 10 | C#Cc1cc(C(=O)Oc2ccc(CC(=O)O)cc2)cc2c1OC(C)(C)CC2(C)C [Compound 1, 8-Ethynyl-2,2,4,4-tetramethyl-chroman-6-carboxylic acid 4-carboxymethyl-phenyl ester]
3 | > 10 | 0.004 | > 10 | C#Cc1cc(C#Cc2ccc(CC(=O)O)c(F)c2)cc2c1OC(C)(C)CC2(C)C [Compound 41, [4-(8-Ethynyl-2,2,4,4-tetramethyl-chroman-6-ylethynyl)-2-fluoro-phenyl]-acetic acid]
4 | 3.47 | 0.1 | > 10 | C#Cc1cc(C(=O)Oc2ccc(CC(=O)O)c(F)c2)cc2c1OC(C)(C)CC2(C)C [Compound 4, 8-Ethynyl-2,2,4,4-tetramethyl-chroman-6-carboxylic acid-4-carboxymethyl-3-fluoro-phenyl ester]
5 | > 10 | 6 | > 10 | C#Cc1cc(C(=O)Oc2ccc(CC(=O)OCC)cc2)cc2c1OC(C)(C)CC2(C)C [Compound 2, 8-Ethynyl-2,2,4,4-tetramethyl-chroman-6-carboxylic acid 4-ethoxycarbonylmethyl-phenyl ester]
6 | 7.24 | 0.018 | 8.24 | C#CCc1cc(C#Cc2ccc(CC(=O)O)cc2)cc2c1OC(C)(C)CC2(C)C [Compound 49]
7 | > 10 | 0.1 | > 10 | CC1(C)CC(C)(C)c2cc(C(=O)Oc3ccc(CC(=O)O)c(F)c3)cc(C#N)c2O1 [Compound 32, 8-Cyano-2,2,4,4-tetramethyl-chroman-6-carboxylic acid-4-carboxymethyl-3-fluoro-phenyl ester]

Row | Compound | Kd (RARα) [µM] | IC50 (P450RAI-1) [µM] | Kd (RARγ) [µM]
8 | C#Cc1cc(C(=O)Oc2ccc(CC(=O)OCOC(C)=O)c(F)c2)cc2c1OC(C)(C)CC2(C)C [Compound 5, 8-Ethynyl-2,2,4,4-tetramethyl-chroman-6-carboxylic acid 4-acetoxymethoxycarbonylmethyl-3-fluoro-phenyl ester] | 4.68 | 0.075 | > 10
9 | C#Cc1cc(C(=O)Oc2ccc(CC(=O)OCOC(C)=O)cc2)cc2c1OC(C)(C)CC2(C)C [Compound 3, 8-Ethynyl-2,2,4,4-tetramethyl-chroman-6-carboxylic acid 4-acetoxymethoxycarbonylmethyl-phenyl ester] | > 10 | 0.5 | > 10
10 | CC(=O)OCOC(=O)Cc1ccc(OC(=O)c2cc(C#N)c3c(c2)C(C)(C)CC(C)(C)O3)cc1F [Compound 33, 8-Cyano-2,2,4,4-tetramethyl-chroman-6-carboxylic acid 4-acetoxymethoxycarbonylmethyl-3-fluoro-phenyl ester] | > 10 | 0.1 | > 10
